Data taken from patent US12686664B2, “SOCE inhibitors and therapeutic uses thereof” (Institut National de la Santé et de la Recherche Médicale …, priority 2020, dated 2026).
Structures can show the parent of a compound that is named as a salt. Where two headings read alike, the source gives them in different places.

System: store-operated Ca^2+ entry in PLP-B lymphocytes
Experiment: Store-operated Ca2+ entry after thapsigargin depletion of ER Ca2+ stores in PLP-B lymphocytes
Assay type: cell-based
Settings: PLP-B lymphocytes, % of inhibition (−) or activation; for inhibition at 10 µM / inhibition at 50 µM / inhibition at 100 µM: Lymphocyte
Protocol: The effects of the molecules developed were tested on PLP-B lymphocytes. Store-operated Ca^2+ entry was induced by depletion of Endoplasmic Reticulum Ca^2+ stores (ER Ca^2+ stores) with thapsigargin (Tg) in a Ca^2+-free medium and measured following the addition of 1.8 mM of CaCl2) in the extracellular medium. The results are compared to the results obtained for known SOCE inhibitors SKF-96365, GSK-7975A, Synta 66.

[1] = DMSO control 100%, read-out: Effect on amplitude of SOCE Peak
[2] = thapsigargin (Tg) peak, read-out: Effect on amplitude of Tg Peak
[3] = 100 μM, DMSO control 100%, read-out: Effect on amplitude of SOCE Peak
[4] = 100 μM, thapsigargin (Tg) peak, read-out: Effect on amplitude of Tg Peak

| Structure (SMILES) | inhibition at 10 µM [1] [%] | inhibition at 10 µM [2] [%] | inhibition at 50 µM [1] [%] | inhibition at 50 µM [2] [%] | inhibition at 100 µM [3] [%] | inhibition at 100 µM [4] [%] | Effect on amplitude of SOCE peak (100 μM, DMSO control 100%) [%] |
| --- | --- | --- | --- | --- | --- | --- | --- |
| COCOc1ccc(CCn2cnc3ccccc32)cc1 [6αad VAL3.31, 1-(4-(Methoxymethoxy)phenethyl)-1H-benzo[d]imidazole] | -51 | 10 | -54 | 9 | -5 | 15 |  |
| COc1ccc(CCCOc2ccc(CCn3cncn3)cc2)cc1 [Compound 6βf] |  | 13 |  | 18 |  |  | −10.0 |
| Oc1ccc(CCn2cnc3cc(F)ccc32)cc1 [12αd, 5-Fluoro-1-(4-hydroxyphenylethyl)-1H-benzo[d]imidazol hydrochloride] | -2.7 | -6 | -3 | -4.2 | 6.4 | -4.6 |  |
| Oc1ccc(Cn2cnc3ccccc32)cc1 [9αa, 1-(4-hydroxyphenylmethyl)-1H-Benzo[d]imidazol] | -2 | -13 | 4 | 1 | -3 | 12 |  |
